From patent US5502035A, “N-terminus modified analogs of LHRH” (Tap Holdings Inc., priority 1994, dated 1996)
Non-standard residues stand in square brackets, D forms with d. Residues, ends and D or L forms follow the SMILES beside them. Groups on a side chain read outwards from the residue. *: point of attachment. Shikimoyl = O=C(C1=C[C@@H](O)[C@@H](O)[C@H](O)C1)*; dPhe(4-Cl) = N[C@H](Cc1ccc(Cl)cc1)C(=O)O; d2Nal = N[C@H](Cc1ccc2ccccc2c1)C(=O)O; Lys(iPr) = CC(C)NCCCC[C@H](N)C(=O)O; NMeY = CN[C@@H](Cc1ccc(O)cc1)C(=O)O; d3Pal = N[C@H](Cc1cccnc1)C(=O)O; Isonicotinoyl = O=C(c1ccncc1)*; Salicyloyl = O=C(c1ccccc1O)*; Nicotinoyl = O=C(c1cccnc1)*; Ava = NCCCCC(=O)O; GABA = NCCCC(=O)O; βAla = NCCC(=O)O

target: T1, LHRH (Rattus norvegicus, UniProt P30969); test: in vitro test for LHRH antagonist potency (pA2); format: cell-based; conditions: negative logarithm of the antagonist concentration required to shift the response curve produced by the agonist leuprolide to two-fold higher concentration
T1 construct: endogenous in cells; host or cells: rat pituitary cells (own knowledge of the cited Haviv 1989 method)
T1 sequence (P30969 1-327): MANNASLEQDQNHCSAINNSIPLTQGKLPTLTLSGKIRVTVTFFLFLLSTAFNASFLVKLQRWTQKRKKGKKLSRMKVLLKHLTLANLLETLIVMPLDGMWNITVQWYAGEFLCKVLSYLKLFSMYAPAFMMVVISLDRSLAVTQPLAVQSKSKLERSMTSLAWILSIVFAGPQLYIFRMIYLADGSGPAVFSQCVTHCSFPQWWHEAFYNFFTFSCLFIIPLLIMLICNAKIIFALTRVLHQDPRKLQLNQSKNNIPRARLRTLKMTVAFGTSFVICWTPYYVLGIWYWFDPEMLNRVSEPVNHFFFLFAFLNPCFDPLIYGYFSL
Description: Representative compounds of the present invention were evaluated in an in vitro test for LHRH antagonist potency (pA2). The test employed the method detailed in F. Haviv, et al. J. Med. Chem., 32:2340-2344 (1989). The values of pA2 are the negative logarithms of the concentration of the particular antagonist test compound required to shift the response curve produced by the agonist leuprolide to two-fold higher concentration. (Leuprolide is the LHRH agonist having the structure 5-oxo-Pro^1 -His^2 -Trp^3 -Ser^4 -Tyr^5 -D-Leu^6 -Leu^7 -Arg^8 -Pro^9 -NHEt and is disclosed and claimed in U.S. Pat. No. 4,005,063.) Typically pA2 values of 9.5 or greater are indicative of good LHRH antagonist potency, with values of 10.0 or greater being preferred.

SMILES	Kb [nM]
CC(C)C[C@H](NC(=O)[C@@H](CCCCNC(=O)c1cccnc1)NC(=O)[C@H](Cc1ccc(O)cc1)N(C)C(=O)[C@H](CO)NC(=O)[C@@H](Cc1cccnc1)NC(=O)[C@@H](Cc1ccc(Cl)cc1)NC(=O)[C@@H](Cc1ccc2ccccc2c1)NC(=O)CNC(=O)c1cccnc1)C(=O)N[C@@H](CCCCNC(C)C)C(=O)N1CCC[C@H]1C(=O)N[C@H](C)C(N)=O [Example 2f, N-Nicotinyl-Gly-D2Nal-D4ClPhe-D3Pal-Ser-NMeTyr-DLys(N-epsilon-Nicotinyl) -Leu-Lys(N-epsilon-Isopropyl)-Pro-DAlaNH2] (Nicotinoyl-G[d2Nal][dPhe(4-Cl)][d3Pal]S[NMeY][dK](Nicotinoyl)L[Lys(iPr)]P[dA]-NH2)	0.00891
CC(C)C[C@H](NC(=O)[C@@H](CCCCNC(=O)c1cccnc1)NC(=O)[C@H](Cc1ccc(O)cc1)N(C)C(=O)[C@H](CO)NC(=O)[C@@H](Cc1cccnc1)NC(=O)[C@@H](Cc1ccc(Cl)cc1)NC(=O)[C@@H](Cc1ccc2ccccc2c1)NC(=O)CNC(=O)c1ccncc1)C(=O)N[C@@H](CCCCNC(C)C)C(=O)N1CCC[C@H]1C(=O)N[C@H](C)C(N)=O [Example 2g, N-Isonicotinyl-Gly-D2Nal-D4ClPhe-D3Pal-Ser-NMeTyr-DLys(N-epsilon-Nicotinyl) -Leu-Lys(N-epsilon-Isopropyl)-Pro-DAlaNH2] (Isonicotinoyl-G[d2Nal][dPhe(4-Cl)][d3Pal]S[NMeY][dK](Nicotinoyl)L[Lys(iPr)]P[dA]-NH2)	0.00708
CC(C)C[C@H](NC(=O)[C@@H](CCCCNC(=O)c1cccnc1)NC(=O)[C@H](Cc1ccc(O)cc1)N(C)C(=O)[C@H](CO)NC(=O)[C@@H](Cc1cccnc1)NC(=O)[C@@H](Cc1ccc(Cl)cc1)NC(=O)[C@@H](Cc1ccc2ccccc2c1)NC(=O)CNC(=O)c1ccccc1O)C(=O)N[C@@H](CCCCNC(C)C)C(=O)N1CCC[C@H]1C(=O)N[C@H](C)C(N)=O [Example 2h, N-Salicyl-Gly-D2Nal-D4ClPhe-D3Pal-Ser-NMeTyr-DLys(N-epsilon-Nicotinyl) -Leu-Lys(N-epsilon-Isopropyl)-Pro-DAlaNH2] (Salicyloyl-G[d2Nal][dPhe(4-Cl)][d3Pal]S[NMeY][dK](Nicotinoyl)L[Lys(iPr)]P[dA]-NH2)	0.01
CC(C)C[C@H](NC(=O)[C@@H](CCCCNC(=O)c1cccnc1)NC(=O)[C@H](Cc1ccc(O)cc1)N(C)C(=O)[C@H](CO)NC(=O)[C@@H](Cc1cccnc1)NC(=O)[C@@H](Cc1ccc(Cl)cc1)NC(=O)[C@@H](Cc1ccc2ccccc2c1)NC(=O)CNC(=O)[C@@H]1CCCO1)C(=O)N[C@@H](CCCCNC(C)C)C(=O)N1CCC[C@H]1C(=O)N[C@H](C)C(N)=O [Example 4, N-(S)-Tetrahydrofur-2-oyl-Gly-D2Nal-D4ClPhe-D3Pal-Ser-NMeTyr-DLys(Nicotinyl) -Leu-Lys(N-epsilon-Isopropyl)-Pro-DAlaNH2]	0.00794
CC(C)C[C@H](NC(=O)[C@@H](CCCCNC(=O)c1cccnc1)NC(=O)[C@H](Cc1ccc(O)cc1)N(C)C(=O)[C@H](CO)NC(=O)[C@@H](Cc1cccnc1)NC(=O)[C@@H](Cc1ccc(Cl)cc1)NC(=O)[C@@H](Cc1ccc2ccccc2c1)NC(=O)CNC(=O)[C@H]1CCCO1)C(=O)N[C@@H](CCCCNC(C)C)C(=O)N1CCC[C@H]1C(=O)N[C@H](C)C(N)=O [Example 5, N-(R) Tetrahydrofur-2-oyl-Gly-D2Nal-D4ClPhe-D3Pal-Ser-NMeTyr-DLys(Nicotinyl) -Le u-Lys(N-epsilon-Isopropyl)-Pro-DAlaNH2]	0.0214
CC(C)C[C@H](NC(=O)[C@@H](CCCCNC(=O)c1cccnc1)NC(=O)[C@H](Cc1ccc(O)cc1)N(C)C(=O)[C@H](CO)NC(=O)[C@@H](Cc1cccnc1)NC(=O)[C@@H](Cc1ccc(Cl)cc1)NC(=O)[C@@H](Cc1ccc2ccccc2c1)NC(=O)CCNC(=O)c1cccnc1)C(=O)N[C@@H](CCCCNC(C)C)C(=O)N1CCC[C@H]1C(=O)N[C@H](C)C(N)=O [Example 6a, N-Nicotinyl-3Aminopropionyl-D2Nal-D4ClPhe-D3Pal-Ser-NMeTyr-DLys(N-epsilon- Nicotinyl) -Leu-Lys(N-epsilon-Isopropyl)-Pro-DAlaNH2] ({Nicotinoyl-βAla}-[d2Nal][dPhe(4-Cl)][d3Pal]S[NMeY][dK](Nicotinoyl)L[Lys(iPr)]P[dA]-NH2)	0.00891
CC(C)C[C@H](NC(=O)[C@@H](CCCCNC(=O)c1cccnc1)NC(=O)[C@H](Cc1ccc(O)cc1)N(C)C(=O)[C@H](CO)NC(=O)[C@@H](Cc1cccnc1)NC(=O)[C@@H](Cc1ccc(Cl)cc1)NC(=O)[C@@H](Cc1ccc2ccccc2c1)NC(=O)CCNC(=O)C1=C[C@@H](O)[C@@H](O)[C@H](O)C1)C(=O)N[C@@H](CCCCNC(C)C)C(=O)N1CCC[C@H]1C(=O)N[C@H](C)C(N)=O [Example 6b, N-Shikimyl-3Aminopropionyl-D2Nal-D4ClPhe-D3Pal-Ser-NMeTyr-DLys(N-epsilon-Nicotinyl) -Leu-Lys(N-epsilon-Isopropyl)-Pro-DAlaNH2] ({Shikimoyl-βAla}-[d2Nal][dPhe(4-Cl)][d3Pal]S[NMeY][dK](Nicotinoyl)L[Lys(iPr)]P[dA]-NH2)	0.0158
CC(C)C[C@H](NC(=O)[C@@H](CCCCNC(=O)c1cccnc1)NC(=O)[C@H](Cc1ccc(O)cc1)N(C)C(=O)[C@H](CO)NC(=O)[C@@H](Cc1cccnc1)NC(=O)[C@@H](Cc1ccc(Cl)cc1)NC(=O)[C@@H](Cc1ccc2ccccc2c1)NC(=O)CCCNC(=O)c1cccnc1)C(=O)N[C@@H](CCCCNC(C)C)C(=O)N1CCC[C@H]1C(=O)N[C@H](C)C(N)=O [Example 6c, N-Nicotinyl-4Aminobutyryl-D2Nal-D4ClPhe-D3Pal-Ser-NMeTyr-DLys(N-epsilon-Nicotinyl) -Leu-Lys(N-epsilon-Isopropyl)-Pro-DAlaNH2] ({Nicotinoyl-GABA}-[d2Nal][dPhe(4-Cl)][d3Pal]S[NMeY][dK](Nicotinoyl)L[Lys(iPr)]P[dA]-NH2)	0.0224
CC(C)C[C@H](NC(=O)[C@@H](CCCCNC(=O)c1cccnc1)NC(=O)[C@H](Cc1ccc(O)cc1)N(C)C(=O)[C@H](CO)NC(=O)[C@@H](Cc1cccnc1)NC(=O)[C@@H](Cc1ccc(Cl)cc1)NC(=O)[C@@H](Cc1ccc2ccccc2c1)NC(=O)CCCNC(=O)C1=C[C@@H](O)[C@@H](O)[C@H](O)C1)C(=O)N[C@@H](CCCCNC(C)C)C(=O)N1CCC[C@H]1C(=O)N[C@H](C)C(N)=O [Example 6d, N-Shikimyl-4-Aminobutyryl-D2Nal-D4ClPhe-D3Pal-Ser-NMeTyr-DLys(N-epsilon-Nicotinyl) -Leu-Lys(N-epsilon-Isopropyl)-Pro-DAlaNH2] ({Shikimoyl-GABA}-[d2Nal][dPhe(4-Cl)][d3Pal]S[NMeY][dK](Nicotinoyl)L[Lys(iPr)]P[dA]-NH2)	0.0126
CC(C)C[C@H](NC(=O)[C@@H](CCCCNC(=O)c1cccnc1)NC(=O)[C@H](Cc1ccc(O)cc1)N(C)C(=O)[C@H](CO)NC(=O)[C@@H](Cc1cccnc1)NC(=O)[C@@H](Cc1ccc(Cl)cc1)NC(=O)[C@@H](Cc1ccc2ccccc2c1)NC(=O)CCCCNC(=O)C1=C[C@@H](O)[C@@H](O)[C@H](O)C1)C(=O)N[C@@H](CCCCNC(C)C)C(=O)N1CCC[C@H]1C(=O)N[C@H](C)C(N)=O [Example 6f, N-Shikimyl-5Aminovaleryl-D2Nal-D4ClPhe-D3Pal-Ser-NMeTyr-DLys(N-epsilon-Nicotinyl) -Leu-Lys(N-epsilon-Isopropyl)-Pro-DAlaNH2] ({Shikimoyl-Ava}-[d2Nal][dPhe(4-Cl)][d3Pal]S[NMeY][dK](Nicotinoyl)L[Lys(iPr)]P[dA]-NH2)	0.0257
CC(C)C[C@H](NC(=O)[C@@H](CCCCNC(=O)c1cccnc1)NC(=O)[C@H](Cc1ccc(O)cc1)N(C)C(=O)[C@H](CO)NC(=O)[C@@H](Cc1cccnc1)NC(=O)[C@@H](Cc1ccc(Cl)cc1)NC(=O)[C@@H](Cc1ccc2ccccc2c1)NC(=O)[C@@H](CO)NC(=O)C1=C[C@@H](O)[C@@H](O)[C@H](O)C1)C(=O)N[C@@H](CCCCNC(C)C)C(=O)N1CCC[C@H]1C(=O)N[C@H](C)C(N)=O [Example 7, N-Shikimyl-DSer-D2Nal-D4ClPhe-D3Pal-Ser-NMeTyr-DLys(N-epsilon-Nicotinyl) -Leu-Lys(N-epsilon-Isopropyl)-Pro-DAlaNH2] (Shikimoyl-[dS][d2Nal][dPhe(4-Cl)][d3Pal]S[NMeY][dK](Nicotinoyl)L[Lys(iPr)]P[dA]-NH2)	0.0263
CC(C)C[C@H](NC(=O)[C@@H](CCCCNC(=O)CNC(=O)c1cccnc1)NC(=O)[C@H](Cc1ccc(O)cc1)N(C)C(=O)[C@H](CO)NC(=O)[C@@H](Cc1cccnc1)NC(=O)[C@@H](Cc1ccc(Cl)cc1)NC(=O)[C@@H](Cc1ccc2ccccc2c1)NC(=O)CNC(=O)c1cccnc1)C(=O)N[C@@H](CCCCNC(C)C)C(=O)N1CCC[C@H]1C(=O)N[C@H](C)C(N)=O [Example 8, N-Nicotinyl-Gly-D2Nal-D4ClPhe-D3Pal-Ser-NMeTyr-DLys(Gly-Nicotinyl)-Leu-Lys (N-epsilon-Isopropyl)-Pro-DAlaNH2] (Nicotinoyl-G[d2Nal][dPhe(4-Cl)][d3Pal]S[NMeY][dK]([Gly-Nicotinoyl])L[Lys(iPr)]P[dA]-NH2)	0.0204
